In the kinase profiling compilation of Christmann-Franck et al. (2016):

Legend:
Experiment in all cases: KINOMEscan competition binding
Conditions in all cases: compound 0.5 µM
HIPK3 (human) = HIPK3 (human) (UniProt Q9H422)
TGFBR2 (human) = TGFBR2 (human) (UniProt P37173)
TXK (human) = TXK (human) (UniProt P42681)
MAPK12 (human) = MAPK12 (human) (UniProt P53778)
BTK (human) = BTK (human) (UniProt Q06187)
MAPK14 (human) = MAPK14 (human) (UniProt Q16539)
MAP3K15 (human) = MAP3K15 (human) (UniProt Q6ZN16)
MKNK1 (human) = MKNK1 (human) (UniProt Q9BUB5)
PIK3CD (human) = PIK3CD (human) (UniProt O00329)
MAP3K7 (human) = MAP3K7 (human) (UniProt O43318)
CAMK1G (human) = CAMK1G (human) (UniProt Q96NX5)
CDKL2 (human) = CDKL2 (human) (UniProt Q92772)
STK39 (human) = STK39 (human) (UniProt Q9UEW8)
FYN (human) = FYN (human) (UniProt P06241)
[1] = tested on: KIT (human), P10721 [D816H]
CaMK1 (human) = CaMK1 (human) (UniProt Q14012)
SRC (human) = SRC (human) (UniProt P12931)
STK16 (human) = STK16 (human) (UniProt O75716)
MAP4K4 (human) = MAP4K4 (human) (UniProt O95819)
ZAP70 (human) = ZAP70 (human) (UniProt P43403)
SIK2 (human) = SIK2 (human) (UniProt Q9H0K1)
CDKL1 (human) = CDKL1 (human) (UniProt Q00532)
ACVRL1 (human) = ACVRL1 (human) (UniProt P37023)
PIP4K2B (human) = PIP4K2B (human) (UniProt P78356)
CSNK1G3 (human) = CSNK1G3 (human) (UniProt Q9Y6M4)
CSNK1A1L (human) = CSNK1A1L (human) (UniProt Q8N752)
DSTYK (human) = DSTYK (human) (UniProt Q6XUX3)
CSNK1G2 (human) = CSNK1G2 (human) (UniProt P78368)
CDKL5 (human) = CDKL5 (human) (UniProt O76039)
CSNK1E (human) = CSNK1E (human) (UniProt P49674)
LIMK1 (human) = LIMK1 (human) (UniProt P53667)
CDK14 (human) = CDK14 (human) (UniProt O94921)
BRSK1 (human) = BRSK1 (human) (UniProt Q8TDC3)
ALK (human) = ALK (human) (UniProt Q9UM73)
EPHA5 (human) = EPHA5 (human) (UniProt P54756)
[2] = tested on: FGFR3 (human), P22607 [G697C]
SIK3 (human) = SIK3 (human) (UniProt Q9Y2K2)
TIE1 (human) = TIE1 (human) (UniProt P35590)
MAP2K4 (human) = MAP2K4 (human) (UniProt P45985)
TTK (human) = TTK (human) (UniProt P33981)
TAOK2 (human) = TAOK2 (human) (UniProt Q9UL54)
[3] = tested on: ABL1 (human), P00519 [M351T]

Chain of TXK (human) (P42681 whole entry, looked up): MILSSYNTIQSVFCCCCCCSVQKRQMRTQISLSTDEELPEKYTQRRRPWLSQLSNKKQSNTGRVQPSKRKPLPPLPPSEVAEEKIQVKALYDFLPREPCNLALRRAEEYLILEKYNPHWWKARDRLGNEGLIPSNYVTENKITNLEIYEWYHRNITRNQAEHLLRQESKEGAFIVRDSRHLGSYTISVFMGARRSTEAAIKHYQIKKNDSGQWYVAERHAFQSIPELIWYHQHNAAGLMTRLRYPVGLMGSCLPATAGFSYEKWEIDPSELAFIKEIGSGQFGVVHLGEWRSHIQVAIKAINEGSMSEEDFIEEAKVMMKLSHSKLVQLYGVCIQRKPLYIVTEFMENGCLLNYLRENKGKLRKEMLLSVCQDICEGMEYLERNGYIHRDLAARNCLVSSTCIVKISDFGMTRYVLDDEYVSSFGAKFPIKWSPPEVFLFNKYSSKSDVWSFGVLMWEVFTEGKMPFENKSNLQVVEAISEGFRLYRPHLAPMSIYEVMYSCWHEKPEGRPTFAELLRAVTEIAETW
Chain of MAP2K4 (human) (P45985 whole entry, looked up): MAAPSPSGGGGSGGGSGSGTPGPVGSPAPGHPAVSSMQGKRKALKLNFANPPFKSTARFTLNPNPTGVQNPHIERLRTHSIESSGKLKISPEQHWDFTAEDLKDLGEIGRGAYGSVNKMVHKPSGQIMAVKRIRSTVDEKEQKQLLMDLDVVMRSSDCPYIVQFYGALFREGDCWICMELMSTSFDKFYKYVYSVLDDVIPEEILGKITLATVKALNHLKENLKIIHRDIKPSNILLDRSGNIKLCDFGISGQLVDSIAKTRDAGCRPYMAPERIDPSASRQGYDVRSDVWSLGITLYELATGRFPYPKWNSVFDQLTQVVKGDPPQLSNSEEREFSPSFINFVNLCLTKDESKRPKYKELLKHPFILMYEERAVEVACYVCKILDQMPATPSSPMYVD
Chain of SRC (human) (P12931 whole entry, looked up): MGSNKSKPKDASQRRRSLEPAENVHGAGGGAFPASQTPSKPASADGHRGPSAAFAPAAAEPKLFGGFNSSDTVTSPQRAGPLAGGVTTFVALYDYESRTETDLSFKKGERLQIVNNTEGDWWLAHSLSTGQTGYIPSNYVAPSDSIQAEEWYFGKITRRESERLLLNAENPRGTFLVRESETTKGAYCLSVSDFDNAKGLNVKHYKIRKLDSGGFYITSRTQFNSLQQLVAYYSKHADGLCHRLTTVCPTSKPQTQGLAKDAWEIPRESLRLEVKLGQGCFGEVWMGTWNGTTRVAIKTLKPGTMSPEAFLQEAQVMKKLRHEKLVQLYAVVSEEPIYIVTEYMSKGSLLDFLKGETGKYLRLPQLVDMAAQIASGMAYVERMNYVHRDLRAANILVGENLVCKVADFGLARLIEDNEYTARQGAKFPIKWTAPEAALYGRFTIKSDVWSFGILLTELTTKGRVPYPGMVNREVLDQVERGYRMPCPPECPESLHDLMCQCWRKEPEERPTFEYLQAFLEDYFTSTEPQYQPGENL
Chain of MKNK1 (human) (Q9BUB5 whole entry, looked up): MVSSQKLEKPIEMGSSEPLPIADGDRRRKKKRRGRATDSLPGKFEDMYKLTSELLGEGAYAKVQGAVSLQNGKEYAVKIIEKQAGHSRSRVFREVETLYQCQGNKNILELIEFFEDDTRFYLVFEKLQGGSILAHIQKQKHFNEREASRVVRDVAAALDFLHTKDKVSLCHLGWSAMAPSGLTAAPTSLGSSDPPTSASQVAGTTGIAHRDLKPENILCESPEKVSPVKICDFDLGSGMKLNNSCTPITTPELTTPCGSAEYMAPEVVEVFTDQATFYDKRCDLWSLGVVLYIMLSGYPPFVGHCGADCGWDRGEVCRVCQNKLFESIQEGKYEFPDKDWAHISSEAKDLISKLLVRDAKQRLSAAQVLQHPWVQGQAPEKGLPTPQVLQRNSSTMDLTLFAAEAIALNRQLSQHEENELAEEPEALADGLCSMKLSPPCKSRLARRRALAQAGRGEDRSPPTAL
Chain of TAOK2 (human) (Q9UL54 whole entry, looked up): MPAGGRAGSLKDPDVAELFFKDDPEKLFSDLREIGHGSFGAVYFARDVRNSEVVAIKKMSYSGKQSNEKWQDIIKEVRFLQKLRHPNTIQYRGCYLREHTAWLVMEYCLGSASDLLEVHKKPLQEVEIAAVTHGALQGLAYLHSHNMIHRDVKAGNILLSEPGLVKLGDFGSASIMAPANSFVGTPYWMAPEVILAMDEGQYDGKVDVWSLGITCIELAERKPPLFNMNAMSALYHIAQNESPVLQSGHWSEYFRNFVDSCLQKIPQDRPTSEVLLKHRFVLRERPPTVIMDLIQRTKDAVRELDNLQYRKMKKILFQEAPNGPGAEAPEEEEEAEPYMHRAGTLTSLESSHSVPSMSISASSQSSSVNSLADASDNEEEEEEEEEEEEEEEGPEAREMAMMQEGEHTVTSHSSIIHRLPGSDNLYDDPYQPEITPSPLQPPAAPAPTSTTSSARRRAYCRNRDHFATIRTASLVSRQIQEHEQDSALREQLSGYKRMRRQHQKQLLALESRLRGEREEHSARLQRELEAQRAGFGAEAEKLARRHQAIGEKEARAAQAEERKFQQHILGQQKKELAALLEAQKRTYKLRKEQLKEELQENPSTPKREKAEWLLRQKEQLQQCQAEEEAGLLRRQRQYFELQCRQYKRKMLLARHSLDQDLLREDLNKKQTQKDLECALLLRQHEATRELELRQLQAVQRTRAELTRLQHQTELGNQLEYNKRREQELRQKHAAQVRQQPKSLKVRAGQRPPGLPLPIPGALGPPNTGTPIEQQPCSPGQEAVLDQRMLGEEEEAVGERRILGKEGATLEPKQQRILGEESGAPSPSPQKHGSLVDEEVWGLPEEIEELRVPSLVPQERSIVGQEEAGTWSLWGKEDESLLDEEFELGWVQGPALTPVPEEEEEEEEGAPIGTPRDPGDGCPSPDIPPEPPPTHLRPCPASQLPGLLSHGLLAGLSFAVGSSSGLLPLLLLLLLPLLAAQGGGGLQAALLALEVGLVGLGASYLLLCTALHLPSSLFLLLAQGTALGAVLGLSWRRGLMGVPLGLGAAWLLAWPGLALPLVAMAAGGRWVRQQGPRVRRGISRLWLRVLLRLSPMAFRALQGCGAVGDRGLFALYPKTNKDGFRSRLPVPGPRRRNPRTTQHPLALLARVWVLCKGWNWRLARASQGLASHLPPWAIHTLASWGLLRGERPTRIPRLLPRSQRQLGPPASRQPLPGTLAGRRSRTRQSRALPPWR
Chain of CSNK1G2 (human) (P78368 whole entry, looked up): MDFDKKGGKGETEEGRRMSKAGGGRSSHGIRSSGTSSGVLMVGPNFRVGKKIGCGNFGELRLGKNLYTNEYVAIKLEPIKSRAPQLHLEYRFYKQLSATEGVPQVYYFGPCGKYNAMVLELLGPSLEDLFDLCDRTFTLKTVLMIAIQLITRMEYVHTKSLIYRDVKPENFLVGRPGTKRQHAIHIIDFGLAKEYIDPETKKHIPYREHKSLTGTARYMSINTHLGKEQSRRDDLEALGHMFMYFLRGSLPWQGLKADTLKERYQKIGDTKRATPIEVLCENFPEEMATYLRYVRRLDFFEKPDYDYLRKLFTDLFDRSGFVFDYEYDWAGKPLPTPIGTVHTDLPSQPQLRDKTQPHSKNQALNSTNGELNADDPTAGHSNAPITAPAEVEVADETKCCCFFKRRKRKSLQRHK
Chain of STK16 (human) (O75716 whole entry, looked up): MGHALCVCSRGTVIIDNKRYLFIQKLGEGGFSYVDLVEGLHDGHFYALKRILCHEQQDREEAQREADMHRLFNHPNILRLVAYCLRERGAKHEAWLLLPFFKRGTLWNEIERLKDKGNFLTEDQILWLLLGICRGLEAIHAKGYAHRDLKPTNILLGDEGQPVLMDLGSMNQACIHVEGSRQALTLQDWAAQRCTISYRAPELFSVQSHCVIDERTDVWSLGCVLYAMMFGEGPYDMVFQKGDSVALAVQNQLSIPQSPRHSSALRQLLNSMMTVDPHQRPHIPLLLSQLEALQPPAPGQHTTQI
Chain of ACVRL1 (human) (P37023 whole entry, looked up): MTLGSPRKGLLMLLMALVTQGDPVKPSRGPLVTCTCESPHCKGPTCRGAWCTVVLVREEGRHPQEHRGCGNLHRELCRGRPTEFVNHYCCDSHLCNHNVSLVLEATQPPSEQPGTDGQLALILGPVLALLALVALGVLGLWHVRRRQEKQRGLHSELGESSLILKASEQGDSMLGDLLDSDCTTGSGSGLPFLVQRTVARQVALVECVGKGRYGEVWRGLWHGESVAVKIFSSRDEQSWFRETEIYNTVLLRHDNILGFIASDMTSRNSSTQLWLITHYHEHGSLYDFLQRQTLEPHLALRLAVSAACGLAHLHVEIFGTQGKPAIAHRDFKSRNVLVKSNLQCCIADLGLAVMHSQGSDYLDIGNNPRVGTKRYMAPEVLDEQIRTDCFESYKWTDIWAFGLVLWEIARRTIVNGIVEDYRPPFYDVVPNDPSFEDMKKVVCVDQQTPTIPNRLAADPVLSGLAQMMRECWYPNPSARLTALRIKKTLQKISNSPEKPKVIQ
Chain of CDKL1 (human) (Q00532 whole entry, looked up): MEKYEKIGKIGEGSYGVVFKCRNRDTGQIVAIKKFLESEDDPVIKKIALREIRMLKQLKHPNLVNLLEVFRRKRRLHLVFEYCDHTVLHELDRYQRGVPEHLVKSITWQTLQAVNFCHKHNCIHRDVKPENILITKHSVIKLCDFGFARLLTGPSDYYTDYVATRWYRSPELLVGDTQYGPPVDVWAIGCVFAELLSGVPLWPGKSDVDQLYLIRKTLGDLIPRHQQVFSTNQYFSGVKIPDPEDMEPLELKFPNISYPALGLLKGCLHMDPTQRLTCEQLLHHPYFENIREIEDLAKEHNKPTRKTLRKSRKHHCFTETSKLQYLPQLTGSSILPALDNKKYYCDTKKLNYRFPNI

With `Cn1c2ccccc2c2c3c(c4c5ccccc5n(CCC#N)c4c21)CNC3=O` the kinase still bound, per cent of control (HIPK3 (human)) was 12%, the kinase still bound, per cent of control (TGFBR2 (human)) was 100% and the kinase still bound, per cent of control (TXK (human)) was 11%. The kinase still bound, per cent of control (MAPK12 (human)) was 68%, the kinase still bound, per cent of control (BTK (human)) was 83% and the kinase still bound, per cent of control (MAPK14 (human)) was 95%. It also gave a kinase still bound, per cent of control (MAP3K15 (human)) of 97%, a kinase still bound, per cent of control (MKNK1 (human)) of 86% and a kinase still bound, per cent of control (PIK3CD (human)) of 45%. For the same compound, the kinase still bound, per cent of control (MAP3K7 (human)) was 8%, the kinase still bound, per cent of control (CAMK1G (human)) was 66% and the kinase still bound, per cent of control (CDKL2 (human)) was 26%. The kinase still bound, per cent of control (STK39 (human)) was 76%, the kinase still bound, per cent of control (FYN (human)) was 92% and the kinase still bound, per cent of control [1] was 30%. For the same compound, the kinase still bound, per cent of control (CaMK1 (human)) was 76%, the kinase still bound, per cent of control (SRC (human)) was 100% and the kinase still bound, per cent of control (STK16 (human)) was 84%. For the same compound, the kinase still bound, per cent of control (MAP4K4 (human)) was 2.2%, the kinase still bound, per cent of control (ZAP70 (human)) was 35% and the kinase still bound, per cent of control (SIK2 (human)) was 36%. For the same compound, the kinase still bound, per cent of control (CDKL1 (human)) was 81%, the kinase still bound, per cent of control (ACVRL1 (human)) was 100% and the kinase still bound, per cent of control (PIP4K2B (human)) was 2%. It also gave a kinase still bound, per cent of control (CSNK1G3 (human)) of 84%, a kinase still bound, per cent of control (CSNK1A1L (human)) of 100% and a kinase still bound, per cent of control (DSTYK (human)) of 2%. The kinase still bound, per cent of control (CSNK1G2 (human)) was 94%, the kinase still bound, per cent of control (CDKL5 (human)) was 10% and the kinase still bound, per cent of control (CSNK1E (human)) was 100%. It also gave a kinase still bound, per cent of control (LIMK1 (human)) of 96%, a kinase still bound, per cent of control (CDK14 (human)) of 100% and a kinase still bound, per cent of control (BRSK1 (human)) of 51%. The kinase still bound, per cent of control (ALK (human)) was 2.1%, the kinase still bound, per cent of control (EPHA5 (human)) was 96% and the kinase still bound, per cent of control [2] was 100%. The kinase still bound, per cent of control (SIK3 (human)) was 100%, the kinase still bound, per cent of control (TIE1 (human)) was 100% and the kinase still bound, per cent of control (MAP2K4 (human)) was 1.2%. The kinase still bound, per cent of control (TTK (human)) was 23%, the kinase still bound, per cent of control (TAOK2 (human)) was 7.7% and the kinase still bound, per cent of control [3] was 88%.
